Measured values reported in the NIST ThermoML archive (doi:10.1021/acs.jced.9b00449).
Numbers after ± are expanded uncertainties.

Assay: mn = molality of the nth substance listed, in mol/kg
Conditions: 100 kPa, Liquid; for kinematic viscosity: Capillary tube (Ostwald / Ubbelohde) method; for mass density: Pycnometric method

SMILES: [K+].[O]=[V](=[O])[O-] [potassium vanadate] + O
- kinematic viscosity (293.15 K, m1 = 0.615): 1.03e-06 ± 1.2e-08 m2/s
- mass density (293.15 K, m1 = 0.615): 1063 ± 11 kg/m3
- kinematic viscosity (303.15 K, m1 = 0.874): 8.5e-07 ± 4e-08 m2/s
- mass density (303.15 K, m1 = 0.874): 1083 ± 16 kg/m3
- kinematic viscosity (313.15 K, m1 = 1.223): 7.51e-07 ± 2e-08 m2/s
- mass density (313.15 K, m1 = 1.223): 1126 ± 11 kg/m3
- kinematic viscosity (323.15 K, m1 = 1.884): 7.42e-07 ± 3.6e-08 m2/s
- mass density (323.15 K, m1 = 1.884): 1171 ± 12 kg/m3
